Experimental data reported in patent US7531502B2, “Diagnostic conjugate useful for intracellular imaging and for differentiating between tumor- and non-tumor cells” (Deutsches Krebsforschungszentrum Stiftung Des Offentlichen …, priority 2002, dated 2009).

Test system: HeLa cervix carcinoma cells
Assay type: cell-based, human
Experimental: (a) Kinetic Studies: HeLa-cell-Uptake of the Gd-complex-transporter [without Address-sequence or with Either Antisense (ACGT)- or Random-sequence (RCGT)] Compared to Magnevist®. Living HeLa-cells were harvested and divided into tubes (Falcon) (Cell No.: 20×10^6 cells per tube). The Gd-complex-transporter without address-sequence and the Magnevist® were each dissolved in MEM culture medium in a concentration of 100 pM and were then incubated for 10, 20, 30 and 60 minutes. […] T1 and T2 relaxation-times within the pellets of both tubes were measured to evaluate the intracellular relaxivity of the respective contrast agents (R=1/T1). The T1-relaxation time was measured by means of an inversion-recovery-sequence (TR: 5000 ms/TE: 76 ms/TI: 25-4000 ms, 15 different TI-values, scan-time 15×25 sec, FOV: 160 mm×160 mm, Matrix: 132×256, slice thickness: 7 mm, pixel size: 1.21×0.63 mm). T2 relaxation-time was measured by a multi-echo-sequence (TR: 5000 ms/16 TE-values: 30 ms−245 ms, FOV: 250 mm×250 mm, Matrix: 256×256, slice thickness: 5 mm, pixel size: 0.98×0.98 mm, scan time: 21 min 21 sec). […] This procedure was repeated hourly until no signal increase compared to the control tube (HeLa cells or lymphocytes in MEM medium without contrast agent) could be detected in T1 weighted sequences.

CNC[C@H](O)[C@@H](O)[C@H](O)[C@H](O)CO.CNC[C@H](O)[C@@H](O)[C@H](O)[C@H](O)CO.O=C([O-])CN(CCN(CC(=O)[O-])CC(=O)O)CCN(CC(=O)[O-])CC(=O)O.[Gd+3] [Magnevist®, reference compound]
MR signal change compared with HeLa cells incubated solely in MEM (HeLa cells, 100 pM, 1 hour incubation): no signal change | relaxivity R (R=1/T1) within the HeLa-cell pellets (HeLa-cell pellets after incubation, inversion-recovery T1 measurement): 0.000995
